{"source": "patent US20110268721A1", "about": "“Therapy Regimens, Dosing Regimens And Stable Medicaments For The Treatment Of Pompe Disease” (Amicus Therapeutics, Inc., priority 2008, published 2011)", "key": {"[1]": {"biological_target": "T1, recombinant human GAA (Myozyme®, Genzyme Corp.) (Homo sapiens, UniProt P10253)", "T1 construct": "purchased Genzyme Corp", "assay": "SYPRO Orange thermal stability assay (heat-induced denaturation)", "type": "binding", "source_text": "The thermal stability assay utilizes heat to induce protein denaturation, which is monitored using a SYPRO Orange dye that fluoresces upon binding to hydrophobic amino acids (which are not exposed in a folded protein).\nFIG. 5 depict the results of a thermal stability assay that utilizes heat to induce protein denaturation, which is monitored using a SYPRO Orange dye that fluoresces upon binding to hydrophobic amino acids (which are not exposed in a folded protein).\nDenaturation is monitored using a SYPRO Orange dye that fluoresces upon binding to hydrophobic amino acids (which are not exposed in a folded protein).\nThe thermal stability was performed at pH 7.4 for two formulations, which corresponds to the pH of the ER.\nA thermal stability experiment as generally described in Example 1 was performed on four compositions:\n(1) Myozyme only composition;"}, "GAA KO mice [2]": {"test_system": "GAA KO mice", "assay": "Myozyme tissue uptake (GAA activity, 4-MUG) in GAA KO mice with or without oral 1-DNJ-HCl", "type": "in vivo", "source_text": "Enzymatic activity as determined using a 4-MUG fluorogenic substrate assay."}, "GAA KO mice [3]": {"test_system": "GAA KO mice", "assay": "Tissue glycogen reduction in GAA KO mice", "type": "in vivo", "conditions": "Myozyme 40 mg/kg IV every other week for 8 weeks, 1-DNJ-HCl 30 mg/kg oral 30 minutes prior where co-administered", "protocol": "Glycogen reduction with Myozyme™ alone was 93±1%, 41±4%, 69±3%, and 18±4%, in heart, diaphragm, soleus, and quadriceps, respectively, relative to untreated mice.\nTwelve-week old male GAA KO mice were administered a single dose of Myozyme™ (40 mg/kg) via bolus tail vein injection every other week for 8 weeks. To prevent anaphylaxis, before the third and fourth Myozyme™ injection, diphenhydramine (10 mg/kg intraperitoneally) was administered 10 min before Myozyme™ injection. […] Mice were euthanized 14 days after the last Myozyme™ administration.\nGlycogen levels in heart, diaphragm, soleus, and quadriceps were then measured. […] Briefly, homogenates were prepared by homogenizing ˜50 mg tissue for 3-5 seconds on ice with a microhomogenizer in 200 μL deionized water. Supernatants were heat denatured (99° C. for 10 min) to remove endogenous amyloglucosidase activity. Denatured lysates (4 μL) were then analyzed in duplicate by addition of 36 μL water with and without 10 μL of 800 U/mL of amyloglucosidase (Sigma Aldrich, St. Louis, Mo.) and incubated for 1 hour at 50° C. The reaction was stopped by inactivation at 100° C. for 10 min. Finally, 200 μL of glucose reagent (Sigma) was added absorbance read at 340 nm on Spectramax. A standard curve ranging from 5 μg/mL to 400 μg/mL Type III rabbit liver glycogen (Sigma) was run each day for conversion of absorbance to absolute glycogen units. Simultaneously, the amount of protein was determined in tissue homogenates using the Micro BCA Protein Assay (Pierce, Rockford, Ill.) following the manufacturer's instructions. The glycogen content of each sample was normalized to protein, and data were finally expressed as micrograms of glycogen per milligram of protein (μg/mg protein)."}, "[4]": {"conditions": "stored at 2 to 8° C.; patient instructions for Myozyme; cited from earlier work"}, "[5]": {"conditions": "reported value; cited from earlier work"}, "[6]": {"biological_target": "T1, recombinant human GAA (Myozyme®, Genzyme Corp.)", "assay": "SYPRO Orange protein folding monitored at 37° C. over 24 hours", "type": "binding", "conditions": "plasma pH (7.4), 100 μM 1-DNJ-HCl", "protocol": "FIG. 2B depicts a parallel SYPRO Orange thermal stability experiment to determine if the loss of enzyme activity shown in FIG. 2A, particularly the loss of Myozyme activity at ER pH (7.4), correlates with protein unfolding and denaturation.\nIn order to determine if loss of initial enzyme activity is correlated to failure to maintain a proper conformation, a SYPRO Orange thermal stability experiment was performed on the samples above as generally described in Example 1. […] Based on this experiment, the % of GAA folded was estimated and plotted in FIG. 2B."}, "GAA KO mouse": {"test_system": "GAA KO mouse", "assay": "GAA activity in heart and diaphragm tissue of GAA KO mouse, rhGAA with or without 1-DNJ-HCl", "type": "in vivo", "protocol": "Three groups of GAA KO Mice were administered one of the following formulations: […]\n(1) Control (No Treatment);\nHeart and Diaphragm tissue homogenates were harvested and rhGAA activity was measured using the fluorogenic substrate (4-MUG)."}, "rhGAA (Myozyme™)": {"biological_target": "T2, rhGAA (Myozyme™) (Homo sapiens, UniProt P10253)", "T2 construct": "purchased Genzyme Corp; host or cells: Chinese hamster ovary cell line", "assay": "rhGAA enzyme inactivation in citrate anti-coagulated whole blood at 37° C. (4-MUG)", "type": "biochemical", "protocol": "Aliquots were collected at 0, 2, 4, 8 and 24 hrs and centrifuged to obtain plasma. These plasma samples were then diluted in potassium acetate buffer (pH 4.0) and assayed for GAA activity using the 4-methylumbeliferyl-α-glucose (4-MUG) fluorogenic substrate. The measured GAA activity for individual samples at each time point was normalized to the 0 hr and expressed as % of initial activity. Data from 4 independent experiments were analyzed to obtain the mean (and standard deviation) and plotted versus time to assess the loss of enzyme activity over this time course.\nAliquots were collected at 0, 3 and 6 hrs and centrifuged to obtain plasma. These plasma samples were then diluted in potassium acetate buffer (pH 4.0) and assayed for GAA activity using the 4-methylumbeliferyl-α-glucose (4-MUG) fluorogenic substrate. The measured GAA activity for individual samples at each time point was normalized to the 0 hr and expressed as % of initial activity.\nBased on human plasma PK data, these concentrations are readily obtainable in the clinic."}, "[7]": {"biological_target": "T3, GAA in cell lines derived from late-onset Pompe patients with the IVS 1 (−13 T>G) splicing defect (Homo sapiens, UniProt P10253)", "T3 construct": "endogenous in cells", "assay": "GAA levels in cell lines derived from late-onset Pompe patients", "type": "cell-based", "conditions": "IVS 1 (−13 T>G) splicing mutation"}}, "note": "Counter-ions that a name gives are not always drawn.", "data": [{"compound": "Myozyme: alglucosidase alfa, human acid α-glucosidase produced by recombinant DNA technology in a Chinese hamster ovary cell line (Genzyme)", "values": [{"measurement": "thermal stability of Myozyme alone", "setting": "[1]; lysosomal pH (5.2) versus ER pH (7.4), no ASSC", "value": "much more stable at lysosomal pH (5.2) than at ER pH (7.4)"}, {"measurement": "Myozyme tissue uptake (as a measure of GAA activity)", "setting": "GAA KO mice [2]; Myozyme 10 mg/kg IV once per week, 7 days post injection, all groups", "value": "declined"}, {"measurement": "glycogen reduction in diaphragm relative to untreated mice", "setting": "GAA KO mice [3]", "value": "41±4", "unit": "%"}, {"measurement": "glycogen reduction in heart relative to untreated mice", "setting": "GAA KO mice [3]", "value": "93±1", "unit": "%"}, {"measurement": "glycogen reduction in quadriceps relative to untreated mice", "setting": "GAA KO mice [3]", "value": "18±4", "unit": "%"}, {"measurement": "glycogen reduction in soleus relative to untreated mice", "setting": "GAA KO mice [3]", "value": "69±3", "unit": "%"}, {"measurement": "time the product is stable on storage", "setting": "[4]", "value": "up to 24 hours"}, {"measurement": "plasma half-life of Myozyme (reported)", "setting": "[5]", "value": "more than 3 hrs"}]}, {"compound": "OC[C@H]1NC[C@H](O)[C@@H](O)[C@@H]1O", "note": "[1-DNJ-HCl, 1-deoxynorjirimycin hydrochloride]", "values": [{"measurement": "thermal stability of rhGAA (heat required to denature)", "setting": "[1]; pH 7.4, 100 μM 1-DNJ-HCl, compared to formulation without the ASSC", "value": "required significantly more heat to denature"}, {"measurement": "prevention of GAA denaturation and loss of enzyme activity", "setting": "[6]", "value": "can prevent GAA denaturation and loss of enzyme activity"}, {"measurement": "effect of co-administration on Myozyme tissue uptake", "setting": "GAA KO mice [2]; 10, 100, 1000 mg/kg oral 1-DNJ-HCl with Myozyme 10 mg/kg IV, up to 7 days post injection", "value": "dose-dependent increase"}, {"measurement": "increase of uptake of rhGAA in heart and diaphragm", "setting": "GAA KO mouse; GAA KO mice, 100 mg/kg p.o., regimen including administration prior to rhGAA injection", "value": "approximately 2 fold"}, {"measurement": "rhGAA uptake in the heart and diaphragm (GAA activity)", "setting": "GAA KO mouse; GAA KO mouse, co-administered with rhGAA versus ERT monotherapy", "value": "increased"}, {"measurement": "rhGAA activity in whole blood with 1-DNJ-HCl", "setting": "rhGAA (Myozyme™); 50 μM 1-DNJ-HCl, 37° C., throughout 24 hrs", "value": "remained completely active"}, {"measurement": "stabilization of rhGAA in whole blood", "setting": "rhGAA (Myozyme™); high 1-DNJ-HCl concentrations (50 and 100 μM), range tested 0-100 μM", "value": "best for stabilizing rhGAA and preventing enzyme inactivation"}, {"measurement": "GAA levels in patient-derived cell lines", "setting": "[7]", "value": "increased GAA levels alone and in combination with hrGAA"}]}]}
